Laboratory results taken from PMC5095007, “Liposomal bortezomib is active against chronic myeloid leukemia by disrupting the Sp1-BCR/ABL axis” (Oncotarget, 2016).

Tests used:
K562 single tumor cells = experiment: Chemosensitization of single tumor cells to doxorubicin, MTT assay; format: cell-based; details: DOX alone (no BORT), mean ±SD, n=6
Protocol: To investigate how L-BORT influences tumor cell growth, tumors were harvested from K562 tumor bearing mice and separated into single cells by collagenase. The single tumor cells were then cultured in RPMI1640 medium with 10% FBS and the cell survival was then evaluated in the presence of doxorubicin combined with subtoxic BORT. As shown in Figure 5C and Table 4, a synergistic effect of toxicity to single tumor cells was found between DOX and free BORT, consistent with what we have observed in K562 cells. […] L-BORT, with enhanced BORT delivery, amplified the synergy effect to approximately a 70-fold increase in chemosensitivity (p < 0.05).
K562 cells (10×10^6) were subcutaneously injected into the flank of 4-6 week old NOD/SCID mice (The Jackson Laboratory, Bar Harbor, ME). When the tumor size approached 1000 mm^3, the tumors were harvested from mouse flank and cut into pieces in PBS buffer. Collagenase was added into the above buffer and incubated for 2 hours at 37°C with shaking. The digested tumor cell suspension was filtered through a cell strainer and centrifuged at 1200 rpm for 5 minutes. The separated tumor cells were kept in cell frozen medium and stored in liquid N2 until use. […]

K562/DOX cells = experiment: Chemosensitization to doxorubicin by subtoxic BORT formulations, MTT/MTS assay; format: cell-based; details: Homo sapiens, DOX alone (No BORT), mean ±SD, n=6
Protocol: To determine if L-BORT and Tf-L-BORT could enhance the cytotoxicity of agents used for CML therapy, we employed the MTS assay to evaluate the cytotoxic effects of doxorubicin, alone and in combination with a subtoxic BORT formulation at 2 nM to doxorubicin resistant K562/DOX cells. Initially, we determined the effects of drug treatment sequences on chemosensitivities by treating the K562/DOX cells with 100 nM doxorubicin for 24-hour before, after or simultaneous addition of subtoxic 2 or 10 nM Tf-L-BORTs followed by another 24 hour co-incubation. […] We then applied this treatment strategy to K562/DOX cells exposed to various concentrations of doxorubicin.
To evaluate BORT toxicity, K562 cells were treated by different concentration of free- or L-BORT. Regarding to the chemosensitivity to doxorubicin, the K562/ DOX cells were pre-treated with doxorubicin for 24 hours and then subtoxic BORT formulations were added for additional 24 hours. Cellular viability was assessed by MTT proliferation assays (Promega, Madison, WI).
For the studies, 24-hour treatment. At this point, 20 μL of CellTiter 96®
AQueous One Solution was added to each well and
37 °C for another 1 hour.

[1] = test system: BCR/ABL protein expression in K562 cells; experiment: Western blotting of BCR/ABL and Sp1; format: cell-based
Protocol: Sp1 siRNA, miR-29b and their scrambles were introduced into K562 cells by Lipofectamine™ 2000 (Invitrogen) and the Western blotting was performed as previously described. The antibodies used are: Sp1, DNMT3a, β-actin and ubiquitin (Santa Cruz Biotechnology, Santa Cruz, CA); ABL, phospho-ABL, caspase-3 and caspase-8 (Cell Signaling Technology, Danvers, MA); Parp, CRKL and p-CRKL (Millipore, Billerica, MA).

[2] = Pharmacokinetics after tail vein injection, plasma BORT by ICP-OES; details: ICR mice, 1.0 mg/kg i.v. tail vein, mean (%CV), n=5
Protocol: (§1) BORT exposure and elimination in mice were investigated following a tail vein injection of L-BORT at 1.0 mg/kg dose. […] PK parameters were obtained by Non-compartmental PK analysis in Phoenix WinNonlin.
(§2) BORT (1.0 mg/kg) was injected into ICR mice via the tail vein and blood samples were collected at various time points. Plasma was isolated by centrifugation at 1500×g for 10 minutes and stored at −20°C. Concentration of BORT in the plasma was calculated from boron concentration the sample, which was measured by coupled plasma-optical emission spectrometers (ICP-OES). For ICP-OES measurement, the plasma samples were prepared as previously described [28]. Data analysis and PK parameter calculations were carried out in Phoenix® WinNonlin® 6.3 (Certara, Princeton, NJ).

[3] = Toxicity assay in vivo in normal mice; details: normal BALB/cByJ mice, 2.5 mg/kg every four days, tail vein; in two weeks
Protocol: To determine the toxicity in vivo, liposomal vehicle, free or L-BORT was administrated through the tail vein to normal BALB/cByJ mice (6-8 weeks old, 22 ± 5 g) in a small volume (0.2 ml) at normal pressure. The dose used was 2.5 mg/kg every four days.

imatinib-refractory CML = test system: imatinib-refractory CML; design: method as in PMID 21816374; details: pilot clinical trial, imatinib-refractory CML patients; ref [15]; cited from earlier work
[4] = test system: BCR/ABL protein expression in KU812 cells; experiment: Western blotting of BCR/ABL and Sp1; format: cell-based; details: KU812, different doses of BORT for 24 hours
K562 cells = experiment: Cytotoxicity of BORT formulations, MTT/MTS cell proliferation assay; format: cell-based; details: mean ±SD, n=6
Protocol: To evaluate BORT toxicity, K562 cells were treated by different concentration of free- or L-BORT. […] Cellular viability was assessed by MTT proliferation assays (Promega, Madison, WI).

in vivo = details: ICR, mouse, plasma, iv, 1 mg/kg
Protocol: as §1, §2

| SMILES | IC50 (K562 single tumor cells; 48 hours) [µM] | IC50 (K562 single tumor cells; Homo sapiens, K562, 48 h) [µM] | IC50 (K562/DOX cells) [µM] | BCR/ABL expression ([1]; K562, various doses, 48 hours) | AUCinf ([2]; 1 mg/kg) | CL ([2]; total body clearance) | V ([2]; volume of distribution) | mice died [3] [%] | clinical efficacy (imatinib-refractory CML) | clinical toxicity (imatinib-refractory CML) | Sp1 and BCR/ABL protein expression [4] | IC50 (K562 cells; 48 hours) [µM] | IC50 (K562 cells; Homo sapiens, K562, 48 h) [µM] | AUC(0-inf) (in vivo) [ng·h/mL] | Cmax (in vivo) [ng/mL] | clearance (in vivo) [mL/min/kg] | half-life (in vivo) [h] | Sp1 and BCR/ABL protein expression ([1]; K562, different doses of BORT for 24 hours) |
| --- | --- | --- | --- | --- | --- | --- | --- | --- | --- | --- | --- | --- | --- | --- | --- | --- | --- | --- |
| COc1cccc2c1C(=O)c1c(O)c3c(c(O)c1C2=O)C[C@@](O)(C(=O)CO)C[C@@H]3O[C@H]1C[C@H](N)[C@H](O)[C@H](C)O1 [DOX, doxorubicin] | 17.1 ± 0.534 | 17 | 20.2 ± 8.75 | dose-dependently downregulated |  |  |  |  |  |  |  |  |  |  |  |  |  |  |
| CC(C)C[C@H](NC(=O)[C@H](Cc1ccccc1)NC(=O)c1cnccn1)B(O)O [Free BORT, bortezomib] |  |  |  |  | 0.661 (12.8%) μg·hr/mL | 1.51 (17.9%) L/hr/kg | 27.1 (17.6%) L/kg | 50 | minimal efficacy | considerable toxicity | inhibition of Sp1 and BCR/ABL protein expression | 0.0393 ± 0.00227 | 0.039 | 469 | 758 | 25.2 | 12.4 | inhibition of Sp1 and BCR/ABL protein expression |
